Results from US20030186816A1, “Herbicide combinations comprising specific sulfonylureas” (Bayer CropScience GmbH, priority 2002, published 2003).

Columns and labels:
Type in all cases: in vivo
Wheat = assay: Crop damage in outdoor trials; conditions: 750 g of AS/ha, scored approx. 4-6 weeks after application, trial with Avena ludoviciana
Description: (§1) Herbicidal Action (Outdoor Trials)
(§2) The seeds or rhizome pieces of typical harmful plants were planted and grown under natural outdoor conditions. After the harmful plants had emerged, they were treated, as a rule at the 2- to 4-leaf stage, with various dosages of the compositions according to the invention at a water application rate of 100 to 400 l/ha (converted).
(§3) After the treatment (approx. 4-6 weeks after application), the herbidical activity of the active compounds or active compound mixtures was scored visually by comparing the treated plots with the untreated control plots. Damage and development of all above-ground parts of the plants was recorded. Scoring was done on a percentage scale (100% action=all plants dead; 50% action=50% of the plants and green plant parts dead; 0% action=no discernible action=like control plot). The score figures of in each case 4 plots were averaged. The results are listed in the tables below, where the activity measured for the independent use of the active compounds (A+B) and C) is stated in brackets.

Avena ludoviciana = assay: Herbicidal action (outdoor trials); conditions: 750 g of AS/ha, scored approx. 4-6 weeks after application
Description: as §1, §2, §3

Winter wheat = assay: Crop damage in outdoor trials
Description: as §1, §2, §3

Papaver rhoeas = assay: Herbicidal action (outdoor trials); conditions: scored approx. 4-6 weeks after application
Description: as §1, §2, §3

Veronic pericaria = assay: Herbicidal action (outdoor trials); conditions: 150 g of AS/ha, scored approx. 4-6 weeks after application
Description: as §1, §2, §3

Summer wheat = assay: Crop damage in outdoor trials; conditions: 30 g of AS/ha, scored approx. 4-6 weeks after application
Description: as §1, §2, §3

Aspera spica venti = assay: Herbicidal action (outdoor trials); conditions: 30 g of AS/ha, scored approx. 4-6 weeks after application
Description: as §1, §2, §3

Brassica naupus = assay: Herbicidal action (outdoor trials); conditions: 30 g of AS/ha, scored approx. 4-6 weeks after application
Description: as §1, §2, §3

Polygonum convolvulus = assay: Herbicidal action (outdoor trials); conditions: 30 g of AS/ha, scored approx. 4-6 weeks after application
Description: as §1, §2, §3

Physalis spp. = assay: Herbicidal action (outdoor trials); conditions: 30 g of AS/ha, scored approx. 4-6 weeks after application
Description: as §1, §2, §3

Cc1cc(Cl)ccc1OCC(=O)O [C), (4-chloro-2-methylphenoxy)acetic acid]
Wheat wheat % damage (Wheat): 0% | Avena ludoviciana % activity (Avena ludoviciana): 0%

COc1nc(C)nc(NC(=O)NS(=O)(=O)c2ccccc2OCCCl)n1 [D), 1-[2-(2-chloroethoxy)phenylsulfonyl]-3-(4-methoxy-6-methyl-1,3,5-triazin-2-yl)urea]
Winter wheat % damage (Winter wheat; 15 g of AS/ha, outdoor, scored approx. 4-6 weeks after application, trial with Papaver rhoeas): 0% | Papaver rhoeas % activity (Papaver rhoeas; 15 g of AS/ha): 65%

N#Cc1cc(Br)c(O)c(Br)c1 [E), 3,5-dibromo-4-hydroxy-benzonitrile]
Winter wheat % damage (Winter wheat; 240 g of AS/ha, outdoor, scored approx. 4-6 weeks after application, trial with Papaver rhoeas): 0% | Papaver rhoeas % activity (Papaver rhoeas; 240 g of AS/ha): 85%

Nc1c(Cl)c(F)nc(OCC(=O)O)c1Cl [I), 4-amino-3,5-dichloro-6-fluoro-2-pyridyloxy acetic acid]
Winter wheat % damage (Winter wheat; in vivo): 1% | Veronic pericaria % activity (Veronic pericaria): 50%

CCOC(=O)[C@@H](C)Oc1ccc(Oc2nc3ccc(Cl)cc3o2)cc1 [J), fenoxaprop-P-ethyl]
Summer wheat % damage (Summer wheat): 0% | Aspera spica venti % activity (Aspera spica venti): 25% | Brassica naupus % activity (Brassica naupus): 0% | Polygonum convolvulus % activity (Polygonum convolvulus): 0% | Physalis spp. % activity (Physalis spp.): 0%
